Results: patent publication US7879370B2, “Composition of which chief ingredient is polysaccharides having an immunoregulatory function” (Merican Corporation, priority 2006, dated 2011)

Type: in vivo, BALB/c mice
Conditions: mouse antiallergy test, days 0 to 22; FIG. 9
Experimental: Body weight was determined with a scale on days 0, 7, 14, and 22. General symptoms were observed daily from day 0 to day 22. Blood plasma analysis was conducted by measuring the OVA-specific IgE level using plasma obtained by centrifuging blood drawn from the ophthalmic vein on days 0, 14, 18, and 22.

In the case of `O=P1(N(CCCl)CCCl)NCCCO1` (stereo not shown) [cyclophosphamide], the “change in body weights” value was “reduction in the body weight”.
